The supplement of paper PMC10307832

Key:
Test in all cases: relative viability (nuclei count vs DMSO), 5 days (fraction); higher = more cells survive
[1] = test system: HCC-78
In short: (§1)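 Lung cancer cell lines, seeded in 1536-well plates, were treated the following day by pin tool with a single drug or with five library-drug doses (not always all listed) in √10 steps on top of a fixed anchor-drug dose. Cells were fixed and nuclei stained in one step after 5 days, and nuclei were counted. Relative viability is the nuclei count for treated wells divided by that for vehicle wells, reported as medians of duplicate plates.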

[2] = test system: LCLC-103H
In short: as §1

[3] = test system: NCI-H2126
In short: as §1

[4] = test system: HCC-827
In short: as §1

[5] = test system: NCI-H2085
In short: as §1

[6] = test system: NCI-H23
In short: as §1

[7] = test system: SK-LU-1
In short: as §1

[8] = test system: RERF-LC-KJ
In short: as §1

[9] = test system: LK-2
In short: as §1

[10] = test system: NCI-H1975
In short: as §1

[11] = test system: NCI-H3122
In short: as §1

[12] = test system: ChaGo-K-1
In short: as §1

[13] = test system: HCC-366
In short: as §1

[14] = test system: EMC-BAC-2
In short: as §1

[15] = test system: LU99A
In short: as §1

[16] = test system: NCI-H2405
In short: as §1

[17] = test system: NCI-H1666
In short: as §1

[18] = test system: EPLC-272H
In short: as §1

[19] = test system: SW 1573
In short: as §1

[20] = test system: SW 900
In short: as §1

[21] = test system: LOU-NH91
In short: as §1

[22] = test system: LXF-289
In short: as §1

[23] = test system: HCC-44
In short: as §1

CC(C)Oc1cc(Nc2nc(N[C@@H](C)c3ccc(F)cn3)ncc2Cl)n[nH]1 [AZ23] + O=C(CCCCCCC(=O)Nc1ccccc1)NO [Vorinostat] (partner 1 µM)
relative viability ([1]; first compound 0.01 µM): 0.432 | relative viability ([1]; first compound 0.03162 µM): 0.401 | relative viability ([1]; first compound 0.3162 µM): 0.341 | relative viability ([2]; first compound 0.01 µM): 0.76 | relative viability ([2]; first compound 0.03162 µM): 0.85 | relative viability ([2]; first compound 0.3162 µM): 0.769 | relative viability ([3]; first compound 0.01 µM): 0.776 | relative viability ([3]; first compound 0.03162 µM): 0.873 | relative viability ([3]; first compound 0.3162 µM): 0.616 | relative viability ([4]; first compound 0.01 µM): 0.964 | relative viability ([4]; first compound 0.03162 µM): 0.866 | relative viability ([4]; first compound 0.3162 µM): 0.9 | relative viability ([5]; first compound 0.01 µM): 0.662 | relative viability ([5]; first compound 0.03162 µM): 0.88 | relative viability ([5]; first compound 0.3162 µM): 0.755 | relative viability ([6]; first compound 0.03162 µM): 0.62 | relative viability ([6]; first compound 0.3162 µM): 0.719 | relative viability ([7]; first compound 0.03162 µM): 0.801 | relative viability ([7]; first compound 0.3162 µM): 0.759 | relative viability ([8]; first compound 0.01 µM): 0.711 | relative viability ([8]; first compound 0.03162 µM): 0.704 | relative viability ([8]; first compound 0.3162 µM): 0.675 | relative viability ([9]; first compound 0.01 µM): 0.22 | relative viability ([9]; first compound 0.03162 µM): 0.216 | relative viability ([9]; first compound 0.3162 µM): 0.3 | relative viability ([10]; first compound 0.01 µM): 0.734 | relative viability ([10]; first compound 0.03162 µM): 0.738 | relative viability ([10]; first compound 0.3162 µM): 0.731 | relative viability ([11]; first compound 0.01 µM): 1.45 | relative viability ([11]; first compound 0.03162 µM): 1.05 | relative viability ([11]; first compound 0.3162 µM): 1.03 | relative viability ([12]; first compound 0.01 µM): 0.936 | relative viability ([12]; first compound 0.03162 µM): 0.798 | relative viability ([12]; first compound 0.3162 µM): 0.82 | relative viability ([13]; first compound 0.01 µM): 0.299 | relative viability ([13]; first compound 0.03162 µM): 0.428 | relative viability ([13]; first compound 0.3162 µM): 0.441 | relative viability ([14]; first compound 0.01 µM): 0.333 | relative viability ([14]; first compound 0.03162 µM): 0.511 | relative viability ([14]; first compound 0.3162 µM): 0.505 | relative viability ([15]; first compound 0.01 µM): 0.516 | relative viability ([15]; first compound 0.03162 µM): 0.6 | relative viability ([15]; first compound 0.3162 µM): 0.493 | relative viability ([16]; first compound 0.01 µM): 0.922 | relative viability ([16]; first compound 0.03162 µM): 1.13 | relative viability ([16]; first compound 0.3162 µM): 1.01 | relative viability ([17]; first compound 0.01 µM): 0.859 | relative viability ([17]; first compound 0.03162 µM): 0.977 | relative viability ([17]; first compound 0.3162 µM): 1.03 | relative viability ([18]; first compound 0.03162 µM): 0.543 | relative viability ([18]; first compound 0.3162 µM): 0.423 | relative viability ([19]; first compound 0.01 µM): 0.963 | relative viability ([19]; first compound 0.03162 µM): 0.881 | relative viability ([19]; first compound 0.3162 µM): 0.757 | relative viability ([20]; first compound 0.01 µM): 0.367 | relative viability ([20]; first compound 0.3162 µM): 0.544 | relative viability ([21]; first compound 0.01 µM): 0.864 | relative viability ([21]; first compound 0.03162 µM): 1.03 | relative viability ([21]; first compound 0.3162 µM): 0.964 | relative viability ([22]; first compound 0.01 µM): 0.949 | relative viability ([22]; first compound 0.03162 µM): 0.776 | relative viability ([22]; first compound 0.3162 µM): 0.737 | relative viability ([23]; first compound 0.01 µM): 1.14 | relative viability ([23]; first compound 0.03162 µM): 1.16 | relative viability ([23]; first compound 0.3162 µM): 1.09

CC(C)Oc1cc(Nc2nc(N[C@@H](C)c3ccc(F)cn3)ncc2Cl)n[nH]1 [AZ23] + O=C(c1cc(Cc2n[nH]c(=O)c3ccccc23)ccc1F)N1CCN(C(=O)C2CC2)CC1 [Olaparib] (partner 8 µM)
relative viability ([1]; first compound 0.01 µM): 0.623 | relative viability ([1]; first compound 0.03162 µM): 0.834 | relative viability ([1]; first compound 0.3162 µM): 0.669 | relative viability ([2]; first compound 0.01 µM): 0.981 | relative viability ([2]; first compound 0.03162 µM): 0.86 | relative viability ([2]; first compound 0.3162 µM): 0.864 | relative viability ([3]; first compound 0.01 µM): 0.996 | relative viability ([3]; first compound 0.03162 µM): 0.924 | relative viability ([3]; first compound 0.3162 µM): 0.888 | relative viability ([4]; first compound 0.01 µM): 0.665 | relative viability ([4]; first compound 0.03162 µM): 0.764 | relative viability ([4]; first compound 0.3162 µM): 0.712 | relative viability ([5]; first compound 0.01 µM): 0.784 | relative viability ([5]; first compound 0.03162 µM): 0.884 | relative viability ([5]; first compound 0.3162 µM): 0.791 | relative viability ([6]; first compound 0.03162 µM): 0.263 | relative viability ([6]; first compound 0.3162 µM): 0.394 | relative viability ([7]; first compound 0.03162 µM): 0.564 | relative viability ([7]; first compound 0.3162 µM): 0.47 | relative viability ([8]; first compound 0.01 µM): 1.06 | relative viability ([8]; first compound 0.03162 µM): 0.875 | relative viability ([8]; first compound 0.3162 µM): 0.917 | relative viability ([9]; first compound 0.01 µM): 0.717 | relative viability ([9]; first compound 0.03162 µM): 0.825 | relative viability ([9]; first compound 0.3162 µM): 0.68 | relative viability ([10]; first compound 0.01 µM): 0.88 | relative viability ([10]; first compound 0.03162 µM): 0.904 | relative viability ([10]; first compound 0.3162 µM): 0.822 | relative viability ([11]; first compound 0.01 µM): 0.627 | relative viability ([11]; first compound 0.03162 µM): 0.715 | relative viability ([11]; first compound 0.3162 µM): 0.684 | relative viability ([12]; first compound 0.01 µM): 0.519 | relative viability ([12]; first compound 0.03162 µM): 0.407 | relative viability ([12]; first compound 0.3162 µM): 0.406 | relative viability ([13]; first compound 0.01 µM): 0.19 | relative viability ([13]; first compound 0.03162 µM): 0.451 | relative viability ([13]; first compound 0.3162 µM): 0.511 | relative viability ([14]; first compound 0.01 µM): 0.545 | relative viability ([14]; first compound 0.03162 µM): 0.514 | relative viability ([14]; first compound 0.3162 µM): 0.503 | relative viability ([15]; first compound 0.01 µM): 0.233 | relative viability ([15]; first compound 0.03162 µM): 0.237 | relative viability ([15]; first compound 0.3162 µM): 0.328 | relative viability ([16]; first compound 0.01 µM): 0.855 | relative viability ([16]; first compound 0.03162 µM): 0.903 | relative viability ([16]; first compound 0.3162 µM): 0.831 | relative viability ([17]; first compound 0.01 µM): 0.718 | relative viability ([17]; first compound 0.03162 µM): 0.699 | relative viability ([17]; first compound 0.3162 µM): 0.759 | relative viability ([18]; first compound 0.03162 µM): 0.563 | relative viability ([18]; first compound 0.3162 µM): 0.901 | relative viability ([19]; first compound 0.01 µM): 0.649 | relative viability ([19]; first compound 0.03162 µM): 0.613 | relative viability ([19]; first compound 0.3162 µM): 0.508 | relative viability ([20]; first compound 0.01 µM): 0.804 | relative viability ([20]; first compound 0.3162 µM): 0.869 | relative viability ([21]; first compound 0.01 µM): 0.958 | relative viability ([21]; first compound 0.03162 µM): 0.961 | relative viability ([21]; first compound 0.3162 µM): 0.94 | relative viability ([22]; first compound 0.01 µM): 1.39 | relative viability ([22]; first compound 0.03162 µM): 1.14 | relative viability ([22]; first compound 0.3162 µM): 1.1 | relative viability ([23]; first compound 0.01 µM): 1.04 | relative viability ([23]; first compound 0.03162 µM): 1.04 | relative viability ([23]; first compound 0.3162 µM): 0.979
